# Data taken from ChEMBL document CHEMBL5532744, “2-Aminopyridines as Potent and Selective Nav1.8 Inhibitors Exhibiting Efficacy in a Nonhuman Primate Pain Model” (ACS Med Chem Lett, 2024).
# How the values were obtained:
# [1] = target: Sodium channel protein type 5 subunit alpha (Homo sapiens, UniProt Q14524); experiment: Inhibition of Nav1.5 (unknown origin)
# [2] = target: Sodium channel protein type 8 subunit alpha (Homo sapiens, UniProt Q9UQD0); experiment: Inhibition of Nav1.6 (unknown origin)
# [3] = target: Sodium channel protein type 10 subunit alpha (Rattus norvegicus, UniProt Q62968); experiment: Inhibition of rat neuronal Nav1.8 by patch clamp electrophysiology
# [4] = target: Sodium channel protein type 9 subunit alpha (Homo sapiens, UniProt Q15858); experiment: Inhibition of Nav1.7 (unknown origin)
# [5] = target: Sodium channel protein type 10 subunit alpha (Homo sapiens, UniProt Q9Y5Y9); experiment: Inhibition of recombinant human Nav1.8 expressed in HEK293 cells by whole cell patch clamp method; format: cell-based
# [6] = Solubility of the compound at pH 7; format: physicochemical; settings: buffer
# [7] = Unbound clearance in rat at 0.05 mg/kg, iv administered as cassette dose; format: ADME, organism-based; settings: in vivo
# [8] = Half-life in rat plasma at 0.05 mg/kg, iv administered as cassette dose; format: ADME, organism-based
# [9] = target: Sodium channel protein type 2 subunit alpha (Homo sapiens, UniProt Q99250); experiment: Inhibition of Nav1.2 (unknown origin)
# [10] = target: Voltage-gated inwardly rectifying potassium channel KCNH2 (Homo sapiens, UniProt Q12809); experiment: Inhibition of hERG; format: toxicity
# [11] = Apparent permeability of compound; format: ADME; settings: not told
# [12] = Clearance in rat at 2 mg/kg, iv; format: ADME, organism-based; settings: in vivo
# [13] = Unbound clearance in rat at 10 mg/kg, po; format: ADME, organism-based; settings: in vivo
# [14] = Volume of distribution in rat at 2 mg/kg, iv; format: ADME, organism-based; settings: in vivo
# [15] = Unbound volume of distribution in rat at 10 mg/kg, po; format: ADME, organism-based; settings: in vivo
# [16] = Half life in rat at 10 mg/kg, po or 2 mg/kg, iv; format: ADME, organism-based; settings: in vivo
# [17] = Tmax in rat at 10 mg/kg, po or 2 mg/kg, iv; format: ADME, organism-based; settings: in vivo
# [18] = Bioavailability in rat at 10 mg/kg, po or 2 mg/kg, iv; format: ADME, organism-based; settings: in vivo
# [19] = Clearance in dog at 1 mg/kg, iv; format: ADME, organism-based, Canis lupus familiaris; settings: in vivo
# [20] = Unbound clearance in dog at 2 mg/kg, po; format: ADME, organism-based, Canis lupus familiaris; settings: in vivo
# [21] = Volume of distribution in dog at 1 mg/kg, iv; format: ADME, organism-based, Canis lupus familiaris; settings: in vivo
# [22] = Unbound volume of distribution in dog at 2 mg/kg, po; format: ADME, organism-based, Canis lupus familiaris; settings: in vivo
# [23] = Half life in dog at 2 mg/kg, po or 1 mg/kg, iv; format: ADME, organism-based, Canis lupus familiaris; settings: in vivo
# [24] = Tmax in dog at 2 mg/kg, po or 1 mg/kg, iv; format: ADME, organism-based, Canis lupus familiaris; settings: in vivo
# [25] = Bioavailability in dog at 2 mg/kg, po or 1 mg/kg, iv; format: ADME, organism-based, Canis lupus familiaris; settings: in vivo
# [26] = Clearance in rhesus monkey at 1 mg/kg, iv; format: ADME, organism-based, Macaca mulatta; settings: in vivo
# [27] = Unbound clearance in rhesus monkey at 2 mg/kg, po; format: ADME, organism-based, Macaca mulatta; settings: in vivo
# [28] = Volume of distribution in rhesus monkey at 1 mg/kg, iv; format: ADME, organism-based, Macaca mulatta; settings: in vivo
# [29] = Unbound volume of distribution in rhesus monkey at 2 mg/kg, po; format: ADME, organism-based, Macaca mulatta; settings: in vivo
# [30] = Half life in rhesus monkey at 2 mg/kg, po or 1 mg/kg, iv; format: ADME, organism-based, Macaca mulatta; settings: in vivo
# [31] = Tmax in rhesus monkey at 2 mg/kg, po or 1 mg/kg, iv; format: ADME, organism-based, Macaca mulatta; settings: in vivo
# [32] = Bioavailability in rhesus monkey at 2 mg/kg, po or 1 mg/kg, iv; format: ADME, organism-based, Macaca mulatta; settings: in vivo
# [33] = Drug concentration in rhesus monkey plasma at 2 mg/kg, po; format: ADME, organism-based, Macaca mulatta; settings: in vivo
# [34] = Drug concentration in rhesus monkey plasma at 6 mg/kg, po; format: ADME, organism-based, Macaca mulatta; settings: in vivo
# [35] = Drug concentration in rhesus monkey plasma at 18 mg/kg, po; format: ADME, organism-based, Macaca mulatta; settings: in vivo
# [36] = Unbound drug concentration in rhesus monkey plasma at 2 mg/kg, po; format: ADME, organism-based, Macaca mulatta; settings: in vivo
# [37] = Unbound drug concentration in rhesus monkey plasma at 6 mg/kg, po; format: ADME, organism-based, Macaca mulatta; settings: in vivo
# [38] = Unbound drug concentration in rhesus monkey plasma at 18 mg/kg, po; format: ADME, organism-based, Macaca mulatta; settings: in vivo
# [39] = target: Voltage-dependent L-type calcium channel subunit alpha-1C (Homo sapiens, UniProt Q13936); experiment: Inhibition of Cav1.2 (unknown origin)
# Sodium channel protein type 10 subunit alpha (Homo sapiens, UniProt Q9Y5Y9), sequence (Q9Y5Y9 whole entry): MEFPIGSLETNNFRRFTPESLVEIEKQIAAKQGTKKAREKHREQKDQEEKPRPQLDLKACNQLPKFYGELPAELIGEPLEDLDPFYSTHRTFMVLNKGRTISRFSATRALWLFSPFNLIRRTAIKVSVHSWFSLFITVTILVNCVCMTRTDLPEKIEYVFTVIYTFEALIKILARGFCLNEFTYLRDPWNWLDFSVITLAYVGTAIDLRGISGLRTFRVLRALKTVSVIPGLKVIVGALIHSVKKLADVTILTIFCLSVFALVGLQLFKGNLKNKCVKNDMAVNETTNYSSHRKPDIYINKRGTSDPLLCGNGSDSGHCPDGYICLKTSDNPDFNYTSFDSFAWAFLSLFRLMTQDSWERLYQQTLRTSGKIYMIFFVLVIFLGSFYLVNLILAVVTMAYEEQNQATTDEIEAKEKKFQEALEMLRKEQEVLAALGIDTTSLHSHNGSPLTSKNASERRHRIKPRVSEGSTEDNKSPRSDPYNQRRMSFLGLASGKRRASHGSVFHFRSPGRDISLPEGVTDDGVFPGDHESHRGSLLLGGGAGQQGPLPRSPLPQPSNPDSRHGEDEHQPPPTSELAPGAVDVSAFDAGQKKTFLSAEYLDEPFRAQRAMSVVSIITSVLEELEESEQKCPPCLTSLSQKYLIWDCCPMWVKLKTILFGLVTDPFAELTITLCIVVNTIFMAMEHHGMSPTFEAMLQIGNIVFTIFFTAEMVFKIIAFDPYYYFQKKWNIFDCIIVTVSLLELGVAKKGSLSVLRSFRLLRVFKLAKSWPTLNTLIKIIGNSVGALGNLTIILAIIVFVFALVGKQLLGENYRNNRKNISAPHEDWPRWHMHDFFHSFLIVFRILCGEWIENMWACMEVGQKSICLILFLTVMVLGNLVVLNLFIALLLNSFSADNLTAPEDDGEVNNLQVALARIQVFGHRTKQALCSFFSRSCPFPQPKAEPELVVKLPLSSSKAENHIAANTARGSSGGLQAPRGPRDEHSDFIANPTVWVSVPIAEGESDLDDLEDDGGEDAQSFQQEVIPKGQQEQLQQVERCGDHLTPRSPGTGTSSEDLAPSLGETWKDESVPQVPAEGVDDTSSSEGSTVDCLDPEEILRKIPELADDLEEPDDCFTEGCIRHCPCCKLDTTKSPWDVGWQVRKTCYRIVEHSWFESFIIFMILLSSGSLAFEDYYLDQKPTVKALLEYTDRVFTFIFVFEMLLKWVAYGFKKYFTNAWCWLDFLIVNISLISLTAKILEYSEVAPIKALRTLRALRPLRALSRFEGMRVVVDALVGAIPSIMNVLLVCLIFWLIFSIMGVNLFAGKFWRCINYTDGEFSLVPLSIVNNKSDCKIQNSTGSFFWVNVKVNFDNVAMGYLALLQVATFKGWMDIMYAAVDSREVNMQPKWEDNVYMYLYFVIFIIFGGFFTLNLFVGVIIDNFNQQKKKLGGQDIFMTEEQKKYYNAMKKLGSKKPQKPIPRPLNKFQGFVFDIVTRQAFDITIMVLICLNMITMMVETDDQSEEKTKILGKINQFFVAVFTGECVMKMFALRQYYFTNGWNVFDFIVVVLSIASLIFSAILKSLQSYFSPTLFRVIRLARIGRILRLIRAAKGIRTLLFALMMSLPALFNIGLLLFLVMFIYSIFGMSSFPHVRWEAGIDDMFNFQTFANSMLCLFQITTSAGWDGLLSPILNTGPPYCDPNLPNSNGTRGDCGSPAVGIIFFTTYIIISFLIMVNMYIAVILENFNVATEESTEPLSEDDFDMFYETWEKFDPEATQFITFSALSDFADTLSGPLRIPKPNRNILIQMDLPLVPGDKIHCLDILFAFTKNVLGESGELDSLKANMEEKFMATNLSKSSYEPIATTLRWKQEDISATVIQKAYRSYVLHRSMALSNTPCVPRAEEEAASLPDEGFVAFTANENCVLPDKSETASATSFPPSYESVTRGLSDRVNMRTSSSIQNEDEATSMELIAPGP
# Sodium channel protein type 8 subunit alpha, sequence (Q9UQD0 whole entry): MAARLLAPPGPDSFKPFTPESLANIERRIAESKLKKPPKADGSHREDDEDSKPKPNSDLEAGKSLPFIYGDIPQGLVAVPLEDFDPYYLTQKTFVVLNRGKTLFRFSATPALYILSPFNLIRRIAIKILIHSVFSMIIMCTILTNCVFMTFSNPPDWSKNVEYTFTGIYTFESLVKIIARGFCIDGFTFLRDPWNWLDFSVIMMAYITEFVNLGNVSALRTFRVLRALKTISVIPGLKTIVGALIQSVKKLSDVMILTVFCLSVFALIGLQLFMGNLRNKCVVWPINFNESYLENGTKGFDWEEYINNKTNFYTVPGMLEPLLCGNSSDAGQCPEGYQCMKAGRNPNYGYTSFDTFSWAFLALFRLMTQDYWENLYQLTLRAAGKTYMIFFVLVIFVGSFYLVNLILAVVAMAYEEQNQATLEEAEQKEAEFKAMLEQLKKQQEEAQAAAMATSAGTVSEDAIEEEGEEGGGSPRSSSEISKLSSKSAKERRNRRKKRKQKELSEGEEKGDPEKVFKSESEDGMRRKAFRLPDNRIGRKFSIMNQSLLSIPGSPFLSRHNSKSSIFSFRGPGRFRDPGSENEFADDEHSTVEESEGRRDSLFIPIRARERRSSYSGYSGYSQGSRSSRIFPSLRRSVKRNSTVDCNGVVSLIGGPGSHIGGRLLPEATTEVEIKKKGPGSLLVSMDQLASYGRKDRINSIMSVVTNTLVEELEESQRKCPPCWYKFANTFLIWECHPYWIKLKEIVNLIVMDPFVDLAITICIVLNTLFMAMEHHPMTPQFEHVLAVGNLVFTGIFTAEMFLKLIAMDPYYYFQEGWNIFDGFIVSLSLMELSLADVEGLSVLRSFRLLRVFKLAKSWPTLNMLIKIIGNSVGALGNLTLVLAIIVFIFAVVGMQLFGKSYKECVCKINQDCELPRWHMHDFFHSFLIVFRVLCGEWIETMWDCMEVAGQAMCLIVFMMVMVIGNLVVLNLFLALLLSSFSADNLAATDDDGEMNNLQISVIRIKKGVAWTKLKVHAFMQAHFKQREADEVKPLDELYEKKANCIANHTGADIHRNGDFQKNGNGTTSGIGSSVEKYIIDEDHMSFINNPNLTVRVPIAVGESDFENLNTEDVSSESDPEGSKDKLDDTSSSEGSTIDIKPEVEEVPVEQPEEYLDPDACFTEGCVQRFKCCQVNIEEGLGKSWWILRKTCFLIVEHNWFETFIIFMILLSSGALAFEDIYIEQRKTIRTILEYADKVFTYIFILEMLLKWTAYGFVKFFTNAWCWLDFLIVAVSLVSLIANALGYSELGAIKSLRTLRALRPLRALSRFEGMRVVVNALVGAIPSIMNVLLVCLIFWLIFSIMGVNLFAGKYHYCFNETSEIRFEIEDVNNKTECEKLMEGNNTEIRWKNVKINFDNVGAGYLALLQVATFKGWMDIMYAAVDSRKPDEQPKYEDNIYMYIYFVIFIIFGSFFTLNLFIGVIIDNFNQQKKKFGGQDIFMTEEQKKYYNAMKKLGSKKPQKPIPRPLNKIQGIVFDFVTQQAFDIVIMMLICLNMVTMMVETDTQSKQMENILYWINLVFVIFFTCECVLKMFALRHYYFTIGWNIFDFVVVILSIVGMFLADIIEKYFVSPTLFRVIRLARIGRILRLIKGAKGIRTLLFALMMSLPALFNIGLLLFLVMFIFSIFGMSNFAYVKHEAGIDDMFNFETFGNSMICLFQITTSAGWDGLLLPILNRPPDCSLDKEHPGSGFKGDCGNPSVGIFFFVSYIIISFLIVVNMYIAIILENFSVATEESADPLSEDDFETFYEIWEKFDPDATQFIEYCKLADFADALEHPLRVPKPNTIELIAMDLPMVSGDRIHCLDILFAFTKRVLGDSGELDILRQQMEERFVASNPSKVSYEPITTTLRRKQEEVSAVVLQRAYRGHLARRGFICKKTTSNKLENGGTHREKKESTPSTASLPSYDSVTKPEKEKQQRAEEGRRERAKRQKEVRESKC
# Voltage-gated inwardly rectifying potassium channel KCNH2, sequence (Q12809 whole entry): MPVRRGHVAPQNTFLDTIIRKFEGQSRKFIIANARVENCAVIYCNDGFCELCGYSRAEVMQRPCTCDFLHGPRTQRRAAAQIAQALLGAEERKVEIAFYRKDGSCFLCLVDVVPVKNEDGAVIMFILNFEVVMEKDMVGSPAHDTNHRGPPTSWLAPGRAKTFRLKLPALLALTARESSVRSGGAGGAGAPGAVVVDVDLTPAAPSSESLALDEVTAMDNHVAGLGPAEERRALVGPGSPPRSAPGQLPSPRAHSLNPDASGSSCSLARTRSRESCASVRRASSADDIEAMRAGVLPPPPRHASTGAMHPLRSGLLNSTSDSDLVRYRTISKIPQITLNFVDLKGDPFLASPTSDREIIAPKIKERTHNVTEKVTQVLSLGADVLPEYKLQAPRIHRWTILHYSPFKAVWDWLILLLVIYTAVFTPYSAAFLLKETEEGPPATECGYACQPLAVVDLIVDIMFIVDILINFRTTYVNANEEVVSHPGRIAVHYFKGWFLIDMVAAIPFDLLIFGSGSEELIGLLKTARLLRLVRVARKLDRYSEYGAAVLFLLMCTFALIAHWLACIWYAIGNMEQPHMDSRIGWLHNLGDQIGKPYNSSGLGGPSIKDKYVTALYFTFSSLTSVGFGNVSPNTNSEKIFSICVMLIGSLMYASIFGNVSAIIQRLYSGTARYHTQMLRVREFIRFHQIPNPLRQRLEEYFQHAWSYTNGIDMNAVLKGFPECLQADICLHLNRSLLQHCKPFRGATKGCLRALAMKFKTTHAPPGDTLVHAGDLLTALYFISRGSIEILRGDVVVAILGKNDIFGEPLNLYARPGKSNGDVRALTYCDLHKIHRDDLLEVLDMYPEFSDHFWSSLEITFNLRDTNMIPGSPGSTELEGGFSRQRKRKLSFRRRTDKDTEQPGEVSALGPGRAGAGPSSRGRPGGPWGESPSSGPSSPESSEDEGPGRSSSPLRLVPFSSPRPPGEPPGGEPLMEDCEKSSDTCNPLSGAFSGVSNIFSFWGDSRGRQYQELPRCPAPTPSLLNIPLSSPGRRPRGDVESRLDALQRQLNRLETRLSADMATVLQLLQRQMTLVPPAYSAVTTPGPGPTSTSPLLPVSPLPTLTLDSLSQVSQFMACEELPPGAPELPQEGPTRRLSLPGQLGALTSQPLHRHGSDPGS
compound,measurement,setting,value
CC(C)(C)c1cc(C(=O)Nc2cccc(S(N)(=O)=O)c2)n(Cc2ccccc2)n1,EC50,[1],> 30000 nM
same,EC50,[2],> 30000 nM
same,IC50,[3],80 nM
same,IC50,[4],> 30000 nM
Cc1cnc(N2CCCCC2)c(C(=O)Nc2cccc(S(N)(=O)=O)c2)c1,EC50,[5],14000 nM
same,solubility,[6],14 µM
Cc1cc(C(=O)Nc2cccc(S(N)(=O)=O)c2)c(N2CCCCC2)nc1C,EC50,[5],320 nM
same,CL free,[7],2900 mL/min/kg
same,half-life,[8],0.57 h
same,solubility,[6],11 µM
COc1ccccc1NC(=O)c1nc2ccccc2nc1N1CCCCC1,EC50,[1],> 30000 nM
same,EC50,[2],> 30000 nM
same,IC50,[3],21000 nM
same,IC50,[4],> 30000 nM
NS(=O)(=O)c1cccc(NC(=O)c2cc(C(F)(F)F)cnc2N2CCCCCC2)c1,EC50,[5],12 nM
same,CL free,[7],1800 mL/min/kg
same,half-life,[8],0.62 h
same,solubility,[6],120 µM
NS(=O)(=O)c1cccc(NC(=O)c2cccnc2N2CCCCC2)c1,EC50,[5],22000 nM
NS(=O)(=O)c1cccc(NC(=O)c2cc(C(F)(F)F)cnc2N2CCCC3(CC3)C2)c1,EC50,[5],34 nM
same,CL free,[7],1800 mL/min/kg
same,half-life,[8],0.72 h
same,solubility,[6],68 µM
NS(=O)(=O)c1cccc(NC(=O)c2cc(C(F)(F)F)cnc2N2CCC(F)(F)CC2)c1,EC50,[5],42 nM
same,CL free,[7],100 mL/min/kg
same,half-life,[8],3.3 h
same,solubility,[6],150 µM
same,EC50,[9],> 30000 nM
same,EC50,[1],> 30000 nM
same,EC50,[2],> 30000 nM
same,IC50,[10],> 30000 nM
same,Papp,[11],28 ×10⁻⁶ cm/s
same,clearance,[12],7.1 mL/min/kg
same,CL free,[13],100 mL/min/kg
same,Vd,[14],1.3 L/kg
same,Vdu,[15],19 L/kg
same,half-life,[16],2.2 h
same,Tmax,[17],2.5 h
same,bioavailability,[18],82%
same,clearance,[19],0.96 mL/min/kg
same,CL free,[20],40 mL/min/kg
same,Vd,[21],0.73 L/kg
same,Vdu,[22],30 L/kg
same,half-life,[23],8.8 h
same,Tmax,[24],1.5 h
same,bioavailability,[25],45%
same,clearance,[26],3.15 mL/min/kg
same,CL free,[27],62 mL/min/kg
same,Vd,[28],1.68 L/kg
same,Vdu,[29],33 L/kg
same,half-life,[30],6.6 h
same,Tmax,[31],2.5 h
same,bioavailability,[32],77%
same,concentration,[33],2180 nM
same,concentration,[34],6110 nM
same,concentration,[35],18600 nM
same,Cp(f),[36],111 nM
same,Cp(f),[37],312 nM
same,Cp(f),[38],948 nM
same,IC50,[39],27000 nM
NS(=O)(=O)c1cccc(NC(=O)c2ccc(C(F)(F)F)nc2N2CCCCC2)c1,EC50,[5],290 nM
same,CL free,[7],1300 mL/min/kg
same,half-life,[8],0.89 h
same,solubility,[6],91 µM
CN1CCN(c2nc3ccccc3cc2C(=O)Nc2cccc(S(N)(=O)=O)c2)CC1,EC50,[5],20000 nM
NS(=O)(=O)c1cccc(NC(=O)c2cc(C(F)(F)F)cnc2N2CCCC(F)(F)CC2)c1,CL free,[7],600 mL/min/kg
same,half-life,[8],1.1 h
same,solubility,[6],110 µM
CN1CCN(c2nc3ccccc3nc2C(=O)Nc2cccc(S(N)(=O)=O)c2)CC1,EC50,[5],> 30000 nM
NS(=O)(=O)c1cccc(NC(=O)c2cc(C(F)(F)F)cnc2N2CCCC(F)(F)C2)c1,EC50,[5],240 nM
same,CL free,[7],210 mL/min/kg
same,half-life,[8],1.1 h
same,solubility,[6],160 µM
NS(=O)(=O)c1cccc(NC(=O)c2cc(C(F)(F)F)cnc2N2CCC3(CC2)CC3)c1,EC50,[5],32 nM
same,CL free,[7],250 mL/min/kg
same,half-life,[8],2.8 h
same,solubility,[6],53 µM
NS(=O)(=O)c1cccc(NC(=O)c2cc3ccccc3nc2N2CCOCC2)c1,EC50,[5],2000 nM
NS(=O)(=O)c1cccc(NC(=O)c2cc(C(F)(F)F)cnc2N2CCCCC2)c1,EC50,[5],220 nM
same,CL free,[7],370 mL/min/kg
same,half-life,[8],1.5 h
same,solubility,[6],120 µM
NS(=O)(=O)c1cccc(NC(=O)c2cc(C(F)(F)F)cnc2N2CCCC2)c1,EC50,[5],2000 nM
same,solubility,[6],160 µM
Cc1ccc(C(=O)Nc2cccc(S(N)(=O)=O)c2)c(N2CCCCC2)n1,EC50,[5],860 nM
same,CL free,[7],1100 mL/min/kg
same,half-life,[8],0.55 h
same,solubility,[6],58 µM
NS(=O)(=O)c1cccc(NC(=O)c2nc3ccccc3nc2N2CCCCC2)c1,EC50,[5],110 nM
